# Experimental data reported in patent US9980943B2, “Methods of treating muscular dystrophy” (BOARD OF REGENTS OF THE NEVADA SYSTEM OF HIGHER EDUCATION, …, priority 2013, dated 2018).
# How the values were obtained:
# Assay type in all cases: cell-based, mouse
# [1] = system: β-galactosidase in CMV-LacZ C2C12 myotubes; assay: CMV-LacZ secondary screen in C2C12 myotubes (β-Gal stabilizing assay); settings: for CMV-LACZ in Myotubes, signal relative to DMSO: C2C12 CMV-LacZ myotubes, fold relative to DMSO; for CMV-LACZ in Myotubes, value relative to DMSO: SU9516 analogs, C2C12 CMV-LacZ, N=2
# Method in brief: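 Stable CMV-LacZ C2C12 clone; six-point curve 0.5–40 μM; duplicates.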
# [2] = system: β-galactosidase in CMV-LacZ C2C12 myoblasts; assay: CMV-LacZ secondary screen in C2C12 myoblasts (β-Gal stabilizing assay); settings: for CMV-LACZ in Myoblasts (β-galactosidase activity relative to DMSO): CMV-LacZ C2C12 myoblasts; for CMV-LACZ in Myoblasts, value relative to DMSO: SU9516 analogs, C2C12 CMV-LacZ, N=2
# Method in brief: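 CMV-LacZ C2C12 line (clonal, FDG-screened); myoblasts/myotubes dosed 0.5–40 μM (0.5, 1, 5, 10, 20, 40 μM); n=2 per point; β-gal stabilization read-out.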
# [3] = system: α7 integrin (LacZ reporter in α7βgal+/− myoblasts); assay: Myoblast α7+/LacZ integrin FDG assay (Burkin assay in myoblasts, 96-well); settings: for Burkin Assay in Myoblasts, signal relative to DMSO: α7+/LacZ myoblasts; for Burkin Assay in Myoblasts, signal relative to DMSO / Burkin Assay in Myoblasts, value relative to DMSO: 96-well; for Burkin Assay in Myoblasts, value relative to DMSO: SU9516 analogs, N=3-6
# [4] = system: α7 integrin (LacZ reporter in α7+/LacZ myotubes); assay: Myotube α7 integrin FDG assay (Burkin assay in myotubes, 96-well); settings: for Burkin Assay in Myotubes, value relative to DMSO: SU9516 analogs, 96-well, N=3-6
# [5] = Mus musculus, Myoblast, 48 h, read-out: Burkin Assay in Myoblasts, value relative to DMSO
structure (smiles),measurement,setting,value
COc1ccc(Cl)cc1NC(=O)c1cc(-c2cc(C)ccc2O)n[nH]1 [MLS000779126-01],"CMV-LACZ in Myotubes, signal relative to DMSO",[1]; 0.5 uM,0.9495
same,"CMV-LACZ in Myotubes, signal relative to DMSO",[1]; 1 uM,1.2162
same,"CMV-LACZ in Myotubes, signal relative to DMSO",[1]; 5 uM,1.0257
same,"CMV-LACZ in Myotubes, signal relative to DMSO",[1]; 10 uM,1.0467
same,"CMV-LACZ in Myotubes, signal relative to DMSO",[1]; 20 uM,0.9988
same,"CMV-LACZ in Myotubes, signal relative to DMSO",[1]; 40 uM,1.1671
same,CMV-LACZ in Myoblasts (β-galactosidase activity relative to DMSO),[2]; 0.5 uM,0.9751
same,CMV-LACZ in Myoblasts (β-galactosidase activity relative to DMSO),[2]; 1 uM,0.9994
same,CMV-LACZ in Myoblasts (β-galactosidase activity relative to DMSO),[2]; 5 uM,0.9637
same,CMV-LACZ in Myoblasts (β-galactosidase activity relative to DMSO),[2]; 10 uM,0.7610
same,CMV-LACZ in Myoblasts (β-galactosidase activity relative to DMSO),[2]; 20 uM,0.9944
same,CMV-LACZ in Myoblasts (β-galactosidase activity relative to DMSO),[2]; 40 uM,0.7441
same,"Burkin Assay in Myoblasts, signal relative to DMSO",[3]; 0.5 uM,1.019
same,"Burkin Assay in Myoblasts, signal relative to DMSO",[3]; 1 uM,1.115
same,"Burkin Assay in Myoblasts, signal relative to DMSO",[3]; 5 uM,0.9229
same,"Burkin Assay in Myoblasts, signal relative to DMSO",[3]; 10 uM,0.8196
same,"Burkin Assay in Myoblasts, signal relative to DMSO",[3]; 20 uM,0.9124
same,"Burkin Assay in Myoblasts, signal relative to DMSO",[3]; 40 uM,0.9389
same,"Burkin Assay in Myotubes, α7 integrin LacZ reporter signal relative to DMSO",[4]; 0.5 uM,0.9836
same,"Burkin Assay in Myotubes, α7 integrin LacZ reporter signal relative to DMSO",[4]; 1 uM,1.018
same,"Burkin Assay in Myotubes, α7 integrin LacZ reporter signal relative to DMSO",[4]; 5 uM,0.9146
same,"Burkin Assay in Myotubes, α7 integrin LacZ reporter signal relative to DMSO",[4]; 10 uM,0.8758
same,"Burkin Assay in Myotubes, α7 integrin LacZ reporter signal relative to DMSO",[4]; 20 uM,0.8832
same,"Burkin Assay in Myotubes, α7 integrin LacZ reporter signal relative to DMSO",[4]; 40 uM,0.7768
CCc1nc(/C=C2\C(=O)Nc3ccccc32)c[nH]1 [MLS000834755-01],"CMV-LACZ in Myotubes, value relative to DMSO",[1]; 0.5 uM,0.5547
same,"CMV-LACZ in Myotubes, value relative to DMSO",[1]; 1 uM,1.2863
same,"CMV-LACZ in Myotubes, value relative to DMSO",[1]; 5 uM,1.0514
same,"CMV-LACZ in Myotubes, value relative to DMSO",[1]; 10 uM,1.1048
same,"CMV-LACZ in Myotubes, value relative to DMSO",[1]; 20 uM,1.2989
same,"CMV-LACZ in Myotubes, value relative to DMSO",[1]; 40 uM,0.8789
same,"CMV-LACZ in Myoblasts, value relative to DMSO",[2]; 0.5 uM,1.0317
same,"CMV-LACZ in Myoblasts, value relative to DMSO",[2]; 1 uM,1.0400
same,"CMV-LACZ in Myoblasts, value relative to DMSO",[2]; 5 uM,0.9591
same,"CMV-LACZ in Myoblasts, value relative to DMSO",[2]; 10 uM,0.9834
same,"CMV-LACZ in Myoblasts, value relative to DMSO",[2]; 20 uM,0.9007
same,"CMV-LACZ in Myoblasts, value relative to DMSO",[2]; 40 uM,0.9133
same,fold induction at 0.5 µM,[3]; [5],1.27
same,fold induction at 1 µM,[3]; [5],1.08
same,fold induction at 5 µM,[3]; [5],1.08
same,fold induction at 10 µM,[3]; [5],1.16
same,fold induction at 20 µM,[3]; [5],1.19
same,fold induction at 40 µM,[3]; [5],0.796
same,"Burkin Assay in Myotubes, value relative to DMSO",[4]; 0.5 uM,1.263
same,"Burkin Assay in Myotubes, value relative to DMSO",[4]; 1 uM,1.232
same,"Burkin Assay in Myotubes, value relative to DMSO",[4]; 5 uM,1.003
same,"Burkin Assay in Myotubes, value relative to DMSO",[4]; 10 uM,0.9868
same,"Burkin Assay in Myotubes, value relative to DMSO",[4]; 20 uM,0.9687
same,"Burkin Assay in Myotubes, value relative to DMSO",[4]; 40 uM,0.816
O=C1Nc2ccccc2/C1=C/c1cnc(-c2ccccc2)[nH]1 [MLS000834756-01],"CMV-LACZ in Myotubes, value relative to DMSO",[1]; 0.5 uM,0.9859
same,"CMV-LACZ in Myotubes, value relative to DMSO",[1]; 1 uM,1.0059
same,"CMV-LACZ in Myotubes, value relative to DMSO",[1]; 5 uM,1.1994
same,"CMV-LACZ in Myotubes, value relative to DMSO",[1]; 10 uM,1.1713
same,"CMV-LACZ in Myotubes, value relative to DMSO",[1]; 20 uM,2.0788
same,"CMV-LACZ in Myotubes, value relative to DMSO",[1]; 40 uM,2.2953
same,"CMV-LACZ in Myoblasts, value relative to DMSO",[2]; 0.5 uM,0.8709
same,"CMV-LACZ in Myoblasts, value relative to DMSO",[2]; 1 uM,1.0422
same,"CMV-LACZ in Myoblasts, value relative to DMSO",[2]; 5 uM,1.2652
same,"CMV-LACZ in Myoblasts, value relative to DMSO",[2]; 10 uM,1.0917
same,"CMV-LACZ in Myoblasts, value relative to DMSO",[2]; 20 uM,0.8022
same,"CMV-LACZ in Myoblasts, value relative to DMSO",[2]; 40 uM,1.1889
same,"Burkin Assay in Myoblasts, value relative to DMSO",[3]; 0.5 uM,1.056
same,"Burkin Assay in Myoblasts, value relative to DMSO",[3]; 1 uM,1.098
same,"Burkin Assay in Myoblasts, value relative to DMSO",[3]; 5 uM,1.227
same,"Burkin Assay in Myoblasts, value relative to DMSO",[3]; 10 uM,1.172
same,"Burkin Assay in Myoblasts, value relative to DMSO",[3]; 20 uM,1.064
same,"Burkin Assay in Myoblasts, value relative to DMSO",[3]; 40 uM,1.081
same,"Burkin Assay in Myotubes, value relative to DMSO",[4]; 0.5 uM,1.079
same,"Burkin Assay in Myotubes, value relative to DMSO",[4]; 1 uM,1.189
same,"Burkin Assay in Myotubes, value relative to DMSO",[4]; 5 uM,1.095
same,"Burkin Assay in Myotubes, value relative to DMSO",[4]; 10 uM,0.9214
same,"Burkin Assay in Myotubes, value relative to DMSO",[4]; 20 uM,0.9495
same,"Burkin Assay in Myotubes, value relative to DMSO",[4]; 40 uM,0.9189
